Measurements taken from PubChem BioAssay (NCI).
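Dose response: 5 concentrations. Exposure: 48 h. Format: 96-well plates. Endpoint: linear interpolation; highest concentration if not reached. Here, GI50 denotes the concentration required for 50% inhibition of growth. The concentration for full growth arrest is given as TGI.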

How the values were obtained:
Assay in all cases: NCI-60 cell line screen, 48 h
[1] = test system: OVCAR-8 ovarian
[2] = test system: RPMI-8226 leukemia
[3] = test system: SW-620 colon
[4] = test system: MDA-MB-231 breast
[5] = test system: TK-10 renal
[6] = test system: 786-0 renal
[7] = test system: LOX IMVI melanoma
[8] = test system: MCF7 breast
[9] = test system: SNB-75 CNS
[10] = test system: NCI-H460 lung
[11] = test system: SF-295 CNS
[12] = test system: NCI-H522 lung
[13] = test system: COLO 205 colon
[14] = test system: MDA-MB-435
[15] = test system: U251 CNS
[16] = test system: EKVX NSCLC
[17] = test system: OVCAR-4 ovarian
[18] = test system: PC-3 prostate
[19] = test system: SK-MEL-28 melanoma
[20] = test system: HT29 colon
[21] = test system: UACC-62 melanoma
[22] = test system: HOP-62 NSCLC
[23] = test system: M14 melanoma
[24] = test system: A549 NSCLC
[25] = test system: HS 578T breast
[26] = test system: CAKI-1 renal
[27] = test system: K-562 leukemia
[28] = test system: SF-268 CNS
[29] = test system: DU-145 prostate
[30] = test system: ACHN renal
[31] = test system: NCI-H23 lung
[32] = test system: OVCAR-3 ovarian
[33] = test system: SNB-19 CNS
[34] = test system: UACC-257 melanoma
[35] = test system: A498 renal
[36] = test system: KM12 colon
[37] = test system: CCRF-CEM leukemia
[38] = test system: OVCAR-5 ovarian
[39] = test system: HCT-116 colon
[40] = test system: HOP-92 NSCLC
[41] = test system: SN12C renal
[42] = test system: MALME-3M melanoma
[43] = test system: HL-60(TB) leukemia
[44] = test system: SF-539 CNS
[45] = test system: SK-MEL-5 melanoma
[46] = test system: HCT-15 colon
[47] = test system: T-47D breast
[48] = test system: NCI-H226 lung
[49] = test system: RXF 393 renal
[50] = test system: HCC-2998 colon
[51] = test system: SK-MEL-2 melanoma
[52] = test system: UO-31 renal
[53] = test system: SR leukemia

## CCCCNCC(O)c1cc2c(Cl)cc(Cl)cc2c2cc(C(F)(F)F)ccc12 (stereo unspecified)
[1]
  GI50: 1890 nM
  TGI: 3860 nM
[2]
  GI50: 2070 nM
  TGI: 4720 nM
[3]
  GI50: 1690 nM
  TGI: 3220 nM
[4]
  GI50: 1600 nM
  TGI: 3270 nM
[5]
  GI50: 1980 nM
  TGI: 3510 nM
[6]
  GI50: 1510 nM
  TGI: 3430 nM
[7]
  GI50: 1660 nM
  TGI: 3600 nM
[8]
  GI50: 1480 nM
  TGI: 2960 nM
[9]
  GI50: 1700 nM
  TGI: 3230 nM
[10]
  GI50: 1680 nM
  TGI: 3300 nM
[11]
  GI50: 1850 nM
  TGI: 3670 nM
[12]
  GI50: 1750 nM
  TGI: 3350 nM
[13]
  GI50: 1780 nM
  TGI: 3310 nM
[14]
  GI50: 1800 nM
  TGI: 3560 nM
[15]
  GI50: 1720 nM
  TGI: 3200 nM
[16]
  GI50: 1820 nM
  TGI: 3610 nM
[17]
  GI50: 1930 nM
  TGI: 3770 nM
[18]
  GI50: 1580 nM
  TGI: 3030 nM
[19]
  GI50: 1900 nM
  TGI: 3410 nM
[20]
  GI50: 1770 nM
  TGI: 3230 nM
[21]
  GI50: 1860 nM
  TGI: 3510 nM
[22]
  GI50: 1770 nM
  TGI: 3280 nM
[23]
  GI50: 1810 nM
  TGI: 3380 nM
[24]
  GI50: 1820 nM
  TGI: 3400 nM
[25]
  GI50: 1590 nM
  TGI: 3670 nM
[26]
  GI50: 1710 nM
  TGI: 3440 nM
[27]
  GI50: 1610 nM
  TGI: 3410 nM
[28]
  GI50: 1840 nM
  TGI: 3710 nM
[29]
  GI50: 1890 nM
  TGI: 3360 nM
[30]
  GI50: 1740 nM
  TGI: 3450 nM
[31]
  GI50: 1590 nM
  TGI: 3320 nM
[32]
  GI50: 1950 nM
  TGI: 3460 nM
[33]
  GI50: 1820 nM
  TGI: 3510 nM
[34]
  GI50: 1830 nM
  TGI: 3510 nM
[35]
  GI50: 1360 nM
  TGI: 2700 nM
[36]
  GI50: 1930 nM
  TGI: 3450 nM
[37]
  GI50: 2500 nM
  TGI: 5170 nM
[38]
  GI50: 1560 nM
  TGI: 3080 nM
[39]
  GI50: 1530 nM
  TGI: 3050 nM
[40]
  GI50: 1200 nM
  TGI: 2710 nM
[41]
  GI50: 1850 nM
  TGI: 3560 nM
[42]
  GI50: 2010 nM
  TGI: 4260 nM
[43]
  GI50: 1770 nM
  TGI: 3610 nM
[44]
  GI50: 1690 nM
  TGI: 3440 nM
[45]
  GI50: 1710 nM
  TGI: 3100 nM
[46]
  GI50: 1790 nM
  TGI: 4140 nM
[47]
  GI50: 1740 nM
  TGI: 3800 nM
[48]
  GI50: 1840 nM
  TGI: 3720 nM
[49]
  GI50: 1480 nM
  TGI: 2850 nM
[50]
  GI50: 1490 nM
  TGI: 2940 nM
[51]
  GI50: 2200 nM
  TGI: 3880 nM
[52]
  GI50: 1340 nM
  TGI: 2830 nM
[53]
  GI50: 1420 nM
  TGI: 3930 nM
